Columns and labels:
Assay type in all cases: ADME; call rule not given here
Cytochrome P450 2B6 [1] = biological target: T1, Cytochrome P450 2B6 (Homo sapiens, UniProt P20813); experiment: Inactivation of C-terminal His4-tagged human CYP2B6 lacking 21 N-terminal residues expressed in Escherichia coli C41 (DE3) assessed as decreases in fluorescence intensity of 7-hydroxy-4-trifluoromethylcoumarin at 5 to 100 uM at 37 degC; settings: TDE = time-dependent effect
T1 sequence (P20813 whole entry): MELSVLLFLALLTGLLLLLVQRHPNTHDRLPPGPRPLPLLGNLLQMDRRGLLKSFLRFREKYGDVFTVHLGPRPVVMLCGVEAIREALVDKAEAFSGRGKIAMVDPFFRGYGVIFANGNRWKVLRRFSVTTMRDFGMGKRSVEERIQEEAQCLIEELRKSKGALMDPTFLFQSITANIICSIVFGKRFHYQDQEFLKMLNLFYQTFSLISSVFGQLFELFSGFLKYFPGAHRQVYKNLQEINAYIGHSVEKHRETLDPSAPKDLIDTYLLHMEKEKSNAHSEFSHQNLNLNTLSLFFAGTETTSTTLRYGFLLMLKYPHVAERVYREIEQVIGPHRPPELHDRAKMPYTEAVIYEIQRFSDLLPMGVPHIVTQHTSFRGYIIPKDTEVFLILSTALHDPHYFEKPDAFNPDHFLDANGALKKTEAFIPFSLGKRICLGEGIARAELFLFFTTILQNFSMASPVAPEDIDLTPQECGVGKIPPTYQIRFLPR

Cytochrome P450 2B6 [2] = biological target: T1, Cytochrome P450 2B6; experiment: Inactivation of C-terminal His4-tagged human CYP2B6 lacking 21 N-terminal residues expressed in Escherichia coli C41 (DE3) assessed as decreases in fluorescence intensity of 7-hydroxy-4-trifluoromethylcoumarin up to 30 mins at 37 degC; settings: 0.5 h
Cytochrome P450 2B6 [3] = biological target: T1, Cytochrome P450 2B6; experiment: Irreversible inactivation of C-terminal His4-tagged human CYP2B6 lacking 21 N-terminal residues assessed as decrease in enzyme catalytic activity measured after overnight dialysis at 100 uM for 15 mins by spectral analysis in presence of NADPH; settings: 0.25 h
Cytochrome P450 2B6 [4] = biological target: T1, Cytochrome P450 2B6; experiment: Irreversible inactivation of C-terminal His4-tagged human CYP2B6 lacking 21 N-terminal residues assessed as decrease in CO difference spectrum measured after overnight dialysis at 100 uM for 15 mins by spectral analysis in presence of NADPH; settings: 0.25 h
CYP2B6 = biological target: T2, CYP2B6 (Homo sapiens, UniProt P20813); experiment: Inactivation of C-terminal His4-tagged human CYP2B6 lacking 21 N-terminal residues assessed as decrease in enzyme catalytic activity at 100 uM for 15 mins by spectral analysis in presence of NADPH
T2 sequence (P20813 whole entry): T1 sequence (P20813 whole entry)

## CCC(=O)C(CC(C)N(C)C)(c1ccccc1)c1ccccc1 (racemic) [METHADONE]
Cytochrome P450 2B6 [1]
  inhibition (INH): tde
Cytochrome P450 2B6 [2]
  inhibition (INH): Dose-dependent effect
Cytochrome P450 2B6 [3]
  inhibition (INH): Active
Cytochrome P450 2B6 [4]
  inhibition (INH): Active
CYP2B6
  inhibition at 0.25 h, 100 µM: 58%
